In US20030219427A1, “TPL-2/COT kinase and methods of use” (priority 1998, published 2003):
“Also recorded” adds a separate entry of the source. One block for each molecule: values may come before it. Peptide text beside a SMILES is read from it. * marks the point of attachment. Cbz = O=C(OCc1ccccc1)*

What was measured:
[1] = biological target: T1, TPL-2/COT kinase (FLAG-COT (30-397)) (Homo sapiens, UniProt P41279); experiment: TPL-2/COT kinase assay and inhibitor screening (COT autophosphorylation and phosphorylation of GST-IκB-α); format: biochemical; conditions: for IC50: retested at 100 μM, 10 μM and 1 μM, compared to DMSO vehicle control, read-out: IC50 for TPL-2 inhibition (inhibits TPL-2 kinase activity by 50%); for inhibitory activity on COT autophosphorylation and phosphorylation of a COT target (IκB-α): initial screen at 100 μM in duplicate
T1 construct: made in house; host or cells: human 293A cells, transient transfection of a pcDNA vector, anti-FLAG immunoprecipitation
Experimental: FLAG-tagged COT protein was expressed in 293A cells by transfection. Typically, 24 h before transfection, human 293A cells (Quantum) were plated at 2×10^6 cells per 10 cm plate. A transfection mixture was prepared comprising 60 μl Lipofectamine (Gibco) and 800 μl Optimem (Gibco) in 15 ml tube. In. a separate tube, 8 μg of DNA encoding a FLAG-tagged COT(30-397) gene in a pcDNA vector was added to 800 μl Optimem. The contents of each tube were then mixed gently with a pipette, and allowed to incubate at room temperature for 25 min. Cells were washed once with Optimem and incubated with the transfection mixture and 6.4 ml of Optimem and allowed to incubate 5 h at 37° C. and 5% CO2. Cells were then incubated with 8 ml DMEM+10% FBS+L-glutamine on day 1, DMEM+5% FBS+L-glutamine on day 2 and harvested 48 h post-transfection.
Transfected 293A cells expressing FLAG-COT (30-397) were lysed on ice for 15 min in lysis buffer (1% Triton X-100, 50 mM Tris-HCl pH 7.5, 150 mM NaCl, 1 mM EDTA, 1 mM EGTA, 20 mM NaF, 10 mM Na4P2O7, 50 mM Na3VO4 plus Complete protease inhibitors (Boehringer)) and lysates were centrifuged (14,000 rpm for 10 min at 4° C.) and supernatants were collected. Immunoprecipitations were performed using FLAG Ab gel (Sigma) at 50 μg Ab per ml of lysate for 3 h at 4° C. with mixing. Gel beads were washed at 4° C. twice with lysis buffer and then twice with wash buffer (50 mM Tris-HCl pH 7.5, 100 mM NaCl, 0.1 mM EGTA and 1 mM DTT). Gel beads were then resuspended in wash buffer and aliquoted into tubes for various kinase reactions.
A TPL-2/COT kinase assay was used to screen various candidate TPL-2/COT kinase inhibitors. The kinase assay was performed a follows. A TPL-2 kinase (i.e., FLAG-COT (30-397)) bound on gel beads was incubated with 2 μg of a target polypeptide substrate (i.e., GST IκB-α (1-50) (Boston Biologicals) in kinase buffer (50 mM Tris-HCl pH 7.5, 10 mM MgCl2, 1 mM EGTA, 2 mM DTT and 0.01% Brij 35) in the presence of an appropriate radiolabel (30 μM ATP and 5 μCi γ-^32P-ATP (Amersham)) for 10 min at 25° C. Reactions were performed in the presence or absence of candidate compounds for inhibitor activity that were prepared as 10 mM stock solutions in 100% DMSO. The test compounds were added to the kinase reaction mixture immediately before addition of […]. Reactions were stopped by the addition of 5×SDS sample buffer, heating at 100° C. for 3 min and supernatants were collected using centrifugation. The autophosphorylation of COT and phosphorylation of the target polypeptide, i.e., GST-IκB-α were analyzed by gel electrophoresis (10% SDS-PAGE) followed by transfer to nitrocellulose membranes and autoradiography. As a control to confirm equivalent levels of FLAG-COT(30-397) and GST-IκB-α proteins were used in the different kinase reactions and also equivalent gel loading, immunoblots were performed with anti-FLAG and anti-GST antibodies, respectively, on the same membranes used for autoradiography. Inhibition of COT kinase activity, either autophosphorylation activity or phosphorylation of the target polypeptide GST-IκB-α was quantitated by scanning of autoradiographs (FIG. 13). Compounds that altered the level of these activities were further analyzed as described below.
As similarly described above, a TPL-2 polypeptide expressed in insect cells was tested for kinase activity using a target polypeptide in the presence or absence of a candidate modulator compound. […]

[2] = system: TPL-2-induced myc-p105 proteolysis in 3T3 cells; experiment: Pulse-chase metabolic labeling of TPL-2-induced myc-p105 proteolysis; format: cell-based
Experimental: Pulse-chase metabolic labeling is performed to determine whether TPL-2 regulates the proteolysis of myc-p105 in 3T3 fibroblasts. For pulse-chase metabolic labeling, NIH-3T3 fibroblasts are transiently transfected using LipofectAMINE (Gibco-BRL) (Huby, et al., (1997) J. Cell. Biol. 137, 1639-1649). Preparation of cytoplasmic and nuclear fractions is performed as described (Watanabe, et al., (1997)
EMBO J. 16, 3609-3620). For pulse-chase metabolic labeling, 2.7×10^5 3T3 cells per 60 mm dish (Nunc) are transfected with the indicated expression vectors. After 24 h, cells are washed and cultured in Met/Cys-free medium for 1 h. Cells are then labeled with 145 MBq of [^35S]-Met/[^35S]-Cys (Pro-Mix, Amersham-Pharmacia Biotech) per dish for 30 min and after washing, chased in complete medium for the indicated times. […] MG132 proteasome inhibitor (Biomol Research labs) is added at […] during the last 15 min of the Met/Cys starvation period and is maintain throughout the chase. Labeled bands are quantified by laser densitometry using a Molecular Dynamics Personal Densitometer. All pulse-chase experiments are performed on at least two occasions with similar results.
The effect of the peptide aldehyde MG132, a potent inhibitor of the proteasome, is determined to investigate whether myc-p105 proteolysis induced by TPL-2 is mediated by the proteasome. […]

HA-p105(369-969) = biological target: T2, HA-p105(369-969) (Homo sapiens (Human), UniProt P19838 368-968); experiment: co-expression in Sf9 cells, purification of the complex from lysates
T2 construct: also called p105?N
T2 sequence: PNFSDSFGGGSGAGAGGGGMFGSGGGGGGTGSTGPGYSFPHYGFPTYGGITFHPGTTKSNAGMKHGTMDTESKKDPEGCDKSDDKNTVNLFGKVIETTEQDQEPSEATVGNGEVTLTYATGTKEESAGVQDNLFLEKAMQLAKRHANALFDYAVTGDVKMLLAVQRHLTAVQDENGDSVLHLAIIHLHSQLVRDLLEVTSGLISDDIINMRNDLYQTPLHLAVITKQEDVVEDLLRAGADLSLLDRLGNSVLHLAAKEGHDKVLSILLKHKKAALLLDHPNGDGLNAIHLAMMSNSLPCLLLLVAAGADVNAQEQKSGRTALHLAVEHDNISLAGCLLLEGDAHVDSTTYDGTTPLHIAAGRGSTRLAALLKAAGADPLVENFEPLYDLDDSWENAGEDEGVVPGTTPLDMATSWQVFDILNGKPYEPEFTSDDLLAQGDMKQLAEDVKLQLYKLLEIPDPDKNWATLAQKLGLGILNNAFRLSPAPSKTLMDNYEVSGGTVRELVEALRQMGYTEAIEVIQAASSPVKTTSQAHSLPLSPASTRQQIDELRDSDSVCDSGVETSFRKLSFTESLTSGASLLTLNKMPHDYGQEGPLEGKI

Myc-TPL-2 = Myc-TPL-2 (Homo sapiens (Human), UniProt P41279 1-467); experiment: cell-based or functional assay
[3] = biological target: T3, Myc-Raf1(CAAX) MEK kinase activity (Homo sapiens, UniProt P04049); experiment: In vitro MEK kinase assay, activated Raf1; format: biochemical
T3 construct: CAAX membrane-targeting motif (C); made in house

Myc-TPL-2ΔC = Myc-TPL-2ΔC (Homo sapiens (Human), UniProt P41279 1-397); experiment: cell-based or functional assay

Molecule: c1ccc(Oc2ccc3nccc(Nc4ccc(Sc5ccccc5)cc4)c3c2)cc1 [N-(6-phenoxy-4-quinolyl)-N-[4-(phenylsulfanyl)phenyl]amine]
- IC50 [1]: 50 µM

Molecule: CN[C@@H]1C[C@H]2O[C@@](C)([C@@H]1OC)n1c3ccccc3c3c4c(c5c6ccccc6n2c5c31)C(=O)NC4 [staurosporine]
- inhibitory activity on COT autophosphorylation and phosphorylation of a COT target (IκB-α) [1]: little or no inhibitory activity

Molecule: C[S+]([O-])c1ccc(-c2nc(-c3ccncc3)c(-c3ccc(F)cc3)[nH]2)cc1 (stereo not drawn) [SB 203580]
- inhibitory activity on COT autophosphorylation and phosphorylation of a COT target (IκB-α) [1]: little or no inhibitory activity

Molecule: CC(C)C[C@@H](C=O)NC(=O)[C@H](CC(C)C)NC(=O)[C@H](CC(C)C)NC(=O)OCc1ccccc1 [MG132] (Cbz-Leu-Leu-Leu-aldehyde)
- effect on TPL-2-induced increased turnover (proteolysis) of myc-p105 ([2]; 3T3 cells co-transfected with myc-p105 and TPL-2, drug maintained throughout chase): blocks increased turnover of myc-p105
- effect on production of myc-p50 ([2]; TPL-2 co-expressing 3T3 cells, during the chase): completely prevents production of myc-p50; also recorded: completely blocked the production of myc-p50

Molecule: COc1cccc(-c2cc(=O)c3ccccc3o2)c1N [PD98059]
- inhibitory activity on COT autophosphorylation and phosphorylation of a COT target (IκB-α) [1]: little or no inhibitory activity

B4: HA-p105 (other, not shown: small tags and cut ends)
chain: MAEDDPYLGRPEQMFHLDPSLTHTIFNPEVFQPQMALPTADGPYLQILEQPKQRGFRFRYVCEGPSHGGLPGASSEKNKKSYPQVKICNYVGPAKVIVQLVTNGKNIHLHAHSLVGKHCEDGICTVTAGPKDMVVGFANLGILHVTKKKVFETLEARMTEACIRGYNPGLLVHPDLAYLQAEGGGDRQLGDREKELIRQAALQQTKEMDLSVVRLMFTAFLPDSTGSFTRRLEPVVSDAIYDSKAPNASNLKIVRMDRTAGCVTGGEEIYLLCDKVQKDDIQIRFYEEEENGGVWEGFGDFSPTDVHRQFAIVFKTPKYKDINITKPASVFVQLRRKSDLETSEPKPFLYYPEIKDKEEVQRKRQKLMPNFSDSFGGGSGAGAGGGGMFGSGGGGGGTGSTGPGYSFPHYGFPTYGGITFHPGTTKSNAGMKHGTMDTESKKDPEGCDKSDDKNTVNLFGKVIETTEQDQEPSEATVGNGEVTLTYATGTKEESAGVQDNLFLEKAMQLAKRHANALFDYAVTGDVKMLLAVQRHLTAVQDENGDSVLHLAIIHLHSQLVRDLLEVTSGLISDDIINMRNDLYQTPLHLAVITKQEDVVEDLLRAGADLSLLDRLGNSVLHLAAKEGHDKVLSILLKHKKAALLLDHPNGDGLNAIHLAMMSNSLPCLLLLVAAGADVNAQEQKSGRTALHLAVEHDNISLAGCLLLEGDAHVDSTTYDGTTPLHIAAGRGSTRLAALLKAAGADPLVENFEPLYDLDDSWENAGEDEGVVPGTTPLDMATSWQVFDILNGKPYEPEFTSDDLLAQGDMKQLAEDVKLQLYKLLEIPDPDKNWATLAQKLGLGILNNAFRLSPAPSKTLMDNYEVSGGTVRELVEALRQMGYTEAIEVIQAASSPVKTTSQAHSLPLSPASTRQQIDELRDSDSVCDSGVETSFRKLSFTESLTSGASLLTLNKMPHDYGQEGPLEGKI
- MEK kinase activity of TPL-2ΔC relative to wild type TPL-2 in cells expressing p105 (Myc-TPL-2ΔC): > 40 fold

Continued, in another order:

- IC50 [1]: 10 µM
Molecule: CCOC(=O)c1cnc2c(c1Nc1ccc(Sc3ccccc3)cc1)C(=O)CCC2 [ethyl 5-oxo-4-[4-(phenylsulfanyl)anilino]-5,6,7,8-tetrahydro-3-quinolinecarboxylate]

- binding result (HA-p105(369-969)): binds
B1: Flag-COT(30-467) (enzyme, not shown: small tags and cut ends)
chain: MENLYASEEPAVYEPSLMTMCQDSNQNDERSKSLLLSGQEVPWLSSVRYGTVEDLLAFANHISNTAKHFYGQRPQESGILLNMVITPQNGRYQIDSDVLLIPWKLTYRNIGSDFIPRGAFGKVYLAQDIKTKKRMACKLIPVDQFKPSDVEIQACFRHENIAELYGAVLWGETVHLFMEAGEGGSVLEKLESCGPMREFEIIWVTKHVLKGLDFLHSKKVIHHDIKPSNIVFMSTKAVLVDFGLSVQMTEDVYFPKDLRGTEIYMSPEVILCRGHSTKADIYSLGATLIHMQTGTPPWVKRYPRSAYPSYLYIIHKQAPPLEDIADDCSPGMRELIEASLERNPNHRPRAADLLKHEALNPPREDQPRCTSLDSALLERKRLLSRKELELPENIADSSCTGSTEESEMLKRQRSLYIDLGALAGYFNLVRGPPTLEYG

- binding result (HA-p105(369-969)): binds
B2: Flag-COT(30-397) (enzyme, not shown: small tags and cut ends)
chain: MENLYASEEPAVYEPSLMTMCQDSNQNDERSKSLLLSGQEVPWLSSVRYGTVEDLLAFANHISNTAKHFYGQRPQESGILLNMVITPQNGRYQIDSDVLLIPWKLTYRNIGSDFIPRGAFGKVYLAQDIKTKKRMACKLIPVDQFKPSDVEIQACFRHENIAELYGAVLWGETVHLFMEAGEGGSVLEKLESCGPMREFEIIWVTKHVLKGLDFLHSKKVIHHDIKPSNIVFMSTKAVLVDFGLSVQMTEDVYFPKDLRGTEIYMSPEVILCRGHSTKADIYSLGATLIHMQTGTPPWVKRYPRSAYPSYLYIIHKQAPPLEDIADDCSPGMRELIEASLERNPNHRPRAADLLKHEALNPPREDQPR

- IC50 of inhibition of TPL-2 MEK kinase activity in vitro (Myc-TPL-2): 0.55 µM
B3: recombinant p105808-892 protein (p105 DD) (other)
chain: DMKQLAEDVKLQLYKLLEIPDPDKNWATLAQKLGLGILNNAFRLSPAPSKTLMDNYEVSGGTVRELVEALRQMGYTEAIEVIQAA
- effect on Myc-Raf1(CAAX) MEK kinase activity [3]: no effect
